{
  "source": "paper PMC2888773",
  "about": "(Cellular microbiology, 2010)",
  "biological_target": "Ov-CF-1 (cathepsin F) (Opisthorchis viverrini, UniProt Q5PXS3)",
  "assay": "fluorogenic release of NHMec",
  "assay_type": "biochemical",
  "settings": "autoactivation at pH 4.5, 37 °C, 1 mM DTT, 1 mM EDTA",
  "data": [
    {"smiles": "Cc1cc(=O)oc2cc(NC(=O)[C@H](CCCNC(=N)N)NC(=O)[C@H](CC(C)C)NC(=O)OCc3ccccc3)ccc12", "note": "[Z-Leu-Arg-NHMec]", "values": [
      {"measurement": "fluorogenic release of NHMec (ex 380 / em 460 nm)", "value": "The rate of hydrolysis of Z-Leu-Arg-NHMec"}
    ]}
  ]
}
